From EP4588921A1, “FREE BASE CRYSTAL FORM OF POLYCYCLIC COMPOUND OF NITROGEN-CONTAINING HETEROCYCLE, AND PREPARATION METHOD THEREFOR” (Jiangsu Hansoh Pharmaceutical Group Co., Ltd., priority 2022, dated 2024)
Converted amounts (≈) assume the structure as drawn. Like-named read-outs stand apart in the source and are kept apart here.

Assays:
[1] = Hygroscopicity experiment; assay type: physicochemical
Protocol: The hygroscopicity of the crystal form I and the crystal form II of compound 9 were investigated under different relative humidity to provide a basis for the storage of the compounds.
The crystal form I and the crystal form II of compound 9 were placed in saturated water vapor at different relative humidities to allow the compound to reach a dynamic equilibrium with the water vapor, and the percentage of weight gain after moisture absorption of the compound after equilibrium was calculated.

[2] = PK studies in animals of the free base crystal forms; assay type: in vivo; conditions: SD rats, plasma; for MRT inf: read-out: MRT 0-∞
Protocol: The pharmacokinetic of the free base crystal form after a single intravenous administration was studied, and the bioavailability of the free base crystal form I and the free base crystal form II after oral administration were calculated.
The free base crystal form I was suspended with 0.5% CMCC-Na aqueous solution, and the free base crystal form […] aqueous solution. After uniformity, the suspensions were administered intragastrically to rats in triplicate at a dosage of 5 mg/kg (30 mg/kg for suspension) for the free base crystal form I and a dosage of 30 mg/kg (suspension) for the free base crystal form II. The free base crystal form I was dissolved with 20% HP-β-CD aqueous solution to obtain a clear solution, and the clear solution was filtered through a filter membrane. The filtered solution was administered via injection to rats in triplicate.

[3] = Solid stability experiment (related substances by HPLC); assay type: physicochemical
Protocol: The compound physical and chemical stability at high temperature of 60°C, high humidity of 92.5% RH and both high temperature of 50°C and high humidity of 75% RH of the free base crystal form I and the free base crystal form II were investigated to provide a basis for the storage of the compounds.
About 2 mg of the free base crystal form I and the free base crystal form II were taken respectively, and changes of related substances in the crystal forms at high temperature of 60°C, high humidity of 92.5% RH, and both high temperature of 50°C and high humidity of 75%RH for 7 days and 14 days were investigated. The changes of related substances were calculated by HPLC and the chromatographic peak area normalization method.

[4] = Solubility experiments in different media (thermodynamic solubility); assay type: physicochemical; conditions: thermodynamic from solid
Description: The solubility of the free base crystal form I and the free base crystal form II in media such as pH 1.0-8.0 USP buffer, artificial simulated gastric fluid (FaSSGF), fasted-state artificial simulated intestinal fluid (FaSSIF), fed-state artificial simulated intestinal fluid (FeSSIF) and pure water was compared to provide a basis for the evaluation of drugability.

[5] = Sprague-Dawley (SD), rat, 2 mg/kg, IV, 2MPK, 20%HP-B-CD solution
[6] = Sprague-Dawley (SD), rat, iv, 2 mg/kg, 2MPK, 20%HP-B-CD solution
[7] = Sprague-Dawley (SD), rat, po, 5 mg/kg, 5MPK, 0.5%CMC-Na
[8] = Sprague-Dawley (SD), rat, po, 30 mg/kg, 30MPK, 0.5%CMC-Na suspension
[9] = Room temperature, 92.5%RH, 7 days
[10] = Room temperature, 92.5%RH, 14 days

Question: With CC(C)(O)c1nc(N2C[C@H]3CN(C(=O)c4c(F)cccc4-c4ncccn4)C[C@H]3C2)ncc1F [free base crystal form I, ((3aR,6aS)-5-(5-fluoro-4-(2-hydroxyprop-2-yl)pyrimidin-2-yl)hexahydropyrrolo [3,4-c]pyrrol-2(1H)-yl)(2-fluoro-6-(pyrimidin-2-yl)phenyl)methanone] as the compound, how does the “change in the XRPD pattern (crystal form transformation)” value ([1]; after 2 cycles of moisture absorption and desorption at 0%-95% relative humidity) read?
Answer: no change in the XRPD pattern

Question: What about the “weight gain after moisture absorption” value ([1]; at 80%RH) of the same compound?
Answer: about 0.3263%

Question: What about the “Tmax” value ([2]; PO, 30MPK, 0.5%CMC-Na suspension) of the same compound?
Answer: 2.0 h

Question: And the C0 [2, 5]?
Answer: 2910 ng/mL

Question: What about the clearance [2, 5] of the same compound?
Answer: 15 mL/min/kg

Question: What about the Vd ([2]; Sprague-Dawley (SD), rat, 2 mg/kg, IV, 2MPK, 20%HP-B-CD solution, read-out: Vss) of the same compound?
Answer: 0.8 L/kg

Question: And the Tmax ([2]; Sprague-Dawley (SD), rat, 5 mg/kg, PO, 5MPK, 0.5%CMC-Na, read-out: tmax)?
Answer: 0.5 h

Question: And the AUC(0-inf) [2, 6]?
Answer: 2280 ng·h/mL

Question: What about the AUC(0-t) [2, 6] of the same compound?
Answer: 2280 ng·h/mL

Question: What about the half-life [2, 6] of the same compound?
Answer: 0.9 h

Question: What about the MRT inf ([2]; Sprague-Dawley (SD), rat, iv, 2 mg/kg, IV, 2MPK, 20%HP-B-CD solution) of the same compound?
Answer: 0.9 h

Question: And the AUC(0-inf) [2, 7]?
Answer: 2410 ng·h/mL

Question: And the AUC(0-t) [2, 7]?
Answer: 2390 ng·h/mL

Question: What about the Cmax [2, 7] of the same compound?
Answer: 787 ng/mL

Question: And the bioavailability [2, 7]?
Answer: 7%

Question: And the half-life [2, 7]?
Answer: 1.2 h

Question: What about the MRT inf ([2]; Sprague-Dawley (SD), rat, po, 5 mg/kg, PO, 5MPK, 0.5%CMC-Na) of the same compound?
Answer: 2.2 h

Question: What about the AUC(0-inf) [2, 8] of the same compound?
Answer: 31000 ng·h/mL

Question: What about the AUC(0-t) [2, 8] of the same compound?
Answer: 28400 ng·h/mL

Question: What about the Cmax [2, 8] of the same compound?
Answer: 6010 ng/mL

Question: And the bioavailability [2, 8]?
Answer: 90.4%

Question: What about the half-life [2, 8] of the same compound?
Answer: 1.9 h

Question: And the MRT inf ([2]; Sprague-Dawley (SD), rat, po, 30 mg/kg, PO, 30MPK, 0.5%CMC-Na suspension)?
Answer: 3.8 h

Question: And the “% Increase in total impurity” value ([3]; 50°C, 75%RH, 7 days)?
Answer: <0.1%

Question: What about the “% Maximum increase in single impurity” value ([3]; 50°C, 75%RH, 7 days) of the same compound?
Answer: <0.1%

Question: And the “% Increase in total impurity” value ([3]; 50°C, 75%RH, 14 days)?
Answer: <0.1%

Question: What about the “% Maximum increase in single impurity” value ([3]; 50°C, 75%RH, 14 days) of the same compound?
Answer: <0.1%

Question: What about the “% Increase in total impurity” value ([3]; 60°C, 7 days) of the same compound?
Answer: <0.1%

Question: And the “% Maximum increase in single impurity” value ([3]; 60°C, 7 days)?
Answer: <0.1%

Question: And the “% Increase in total impurity” value ([3]; 60°C, 14 days)?
Answer: <0.1%

Question: And the “% Maximum increase in single impurity” value ([3]; 60°C, 14 days)?
Answer: <0.1%

Question: And the “% Increase in total impurity” value [3, 9]?
Answer: <0.1%

Question: What about the “% Maximum increase in single impurity” value [3, 9] of the same compound?
Answer: <0.1%

Question: And the “% Increase in total impurity” value [3, 10]?
Answer: <0.1%

Question: What about the “% Maximum increase in single impurity” value [3, 10] of the same compound?
Answer: <0.1%

Question: What about the solubility at 2 h ([4]; FaSSCoF, 37 °C, fassgf or other biorelevant, FaSSCoF, read-out: Solubility of free base crystal form I) of the same compound?
Answer: 118 µg/mL (≈ 253 µM)

Question: What about the solubility at 2 h ([4]; FaSSGF (artificial simulated gastric fluid), 37 °C, fassgf or other biorelevant, FaSSGF, read-out: Solubility of free base crystal form I) of the same compound?
Answer: 269 µg/mL (≈ 577 µM)

Question: What about the solubility at 2 h ([4]; FaSSIF, 37 °C, fassif, FaSSIF, read-out: Solubility of free base crystal form I) of the same compound?
Answer: 247 µg/mL (≈ 529 µM)

Question: And the solubility at 2 h ([4]; FeSSCoF, 37 °C, fassgf or other biorelevant, FeSSCoF, read-out: Solubility of free base crystal form I)?
Answer: 182 µg/mL (≈ 390 µM)

Question: What about the solubility at 2 h ([4]; FeSSIF, 37 °C, fessif, FeSSIF, read-out: Solubility of free base crystal form I) of the same compound?
Answer: 311 µg/mL (≈ 667 µM)

Question: And the solubility at 2 h ([4]; USP buffer pH 1.0, 37 °C, pH 1, simulated gastric fluid, pH 1.0, read-out: Solubility of free base crystal form I)?
Answer: 799 µg/mL (≈ 1710 µM)

Question: What about the solubility at 2 h ([4]; USP buffer pH 2.0, 37 °C, pH 2, simulated gastric fluid, pH 2.0, read-out: Solubility of free base crystal form I) of the same compound?
Answer: 141 µg/mL (≈ 302 µM)

Question: And the solubility at 2 h ([4]; USP buffer pH 3.0, 37 °C, pH 3, aqueous buffer, pH 3.0, read-out: Solubility of free base crystal form I)?
Answer: 87 µg/mL (≈ 186 µM)

Question: What about the solubility at 2 h ([4]; USP buffer pH 4.5, 37 °C, pH 4.5, aqueous buffer, pH 4.5, read-out: Solubility of free base crystal form I) of the same compound?
Answer: 80 µg/mL (≈ 171 µM)

Question: And the solubility at 2 h ([4]; USP buffer pH 6.8, 37 °C, pH 6.8, aqueous buffer, pH 6.8, read-out: Solubility of free base crystal form I)?
Answer: 81 µg/mL (≈ 174 µM)

Question: What about the solubility at 2 h ([4]; USP buffer, 37 °C, pH 4, aqueous buffer, pH 4.0, read-out: Solubility of free base crystal form I) of the same compound?
Answer: 73 µg/mL (≈ 156 µM)

Question: And the solubility at 2 h ([4]; USP buffer, 37 °C, pH 5, aqueous buffer, pH 5.0, read-out: Solubility of free base crystal form I)?
Answer: 88 µg/mL (≈ 189 µM)

Question: What about the solubility at 2 h ([4]; USP buffer, 37 °C, pH 6, aqueous buffer, pH 6.0, read-out: Solubility of free base crystal form I) of the same compound?
Answer: 70 µg/mL (≈ 150 µM)

Question: And the solubility at 2 h ([4]; USP buffer, 37 °C, pH 7, aqueous buffer, pH 7.0, read-out: Solubility of free base crystal form I)?
Answer: 75 µg/mL (≈ 161 µM)

Question: What about the solubility at 2 h ([4]; USP buffer, 37 °C, pH 8, aqueous buffer, pH 8.0, read-out: Solubility of free base crystal form I) of the same compound?
Answer: 58 µg/mL (≈ 124 µM)

Question: What about the solubility at 2 h ([4]; water, 37 °C, water, H2O, read-out: Solubility of free base crystal form I) of the same compound?
Answer: 91 µg/mL (≈ 195 µM)
